Data reported in publication PMC10178204, “Peptaibol Analogs Show Potent Antibacterial Activity against Multidrug Resistant Opportunistic Pathogens” (International Journal of Molecular Sciences, 2023).
≈ marks a conversion by molar mass, not a printed value. Where “and” joins values, the source holds several entries; their conditions need not be identical. Equal entries are not always repeated. Where two headings read alike, the source gives them in different places. Non-standard residues stand in square brackets, D forms with d. Residues, ends and D or L forms follow the SMILES beside them. *: point of attachment. Leu(ol) = CC(C)C[C@H](N)CO; Octanoyl = CCCCCCCC(=O)*; Api = NC1(C(=O)O)CCNCC1; Aib = CC(C)(N)C(=O)O

Tests used:
[1] = tested on: blood agar plate (Columbia CNA Agar); test: Hemolysis on blood agar plate; settings: 35 ± 2 °C, 24 h; for Hemolysis (class): 50 μg peptide (2 μL of 25 mg/mL in DMSO) spotted on blood agar, visual, triplicate; for Hemolysis (d, diameter of hemolysis zone): average of triplicate
Procedure: Hemolysis zones were visually determined and measured. […] For two additional peptides (6 and 15), only a small hemolysis zone (diameter 4–5 mm) was visible, as compared to that of the positive control (Triton X-100, 13 mm).
Briefly, 2 μL of each peptide solution in DMSO (25 mg/mL), corresponding to 50 μg, was spotted on the surface of a blood agar plate (Columbia CNA Agar, Becton Dickinson Italia S.p.A., Florence, Italy). The plate was then incubated at 35 ± 2 °C for 24 h and visually inspected for the presence of hemolysis zones (see Figure S13, Supplementary Material). The experiment was performed in triplicate. Table 2 reports the average value of the diameter of hemolysis zones measured in each individual experiment. Triton X-100 was used as a positive control (diameter of the hemolysis zone: 13 mm), while DMSO was used as a negative control.
Figure S13. Implementation of the hemolysis test as described in Bechlars et al.. After spotting
2 µL (50 µg) of each compound at a random location on the blood agar plate and incubation at 35 ±
2 °C for 24 h, the plates were manually inspected for the presence of hemolysis zones. Triton X-100
and DMSO were used as the positive and negative controls, respectively. Results were interpreted
(1 picture or pasted object on this page, not shown here)

[2] = tested on: S. aureus ATCC 43300 (MRSA); settings: MHB, 5 × 10^5 CFU/mL, 18 h, 35 °C, triplicate
Procedure: (§1) The minimum inhibitory concentration (MIC) and the minimum bactericidal concentration (MBC) of the compounds were determined in triplicate using Mueller–Hinton broth (MHB). […] Therefore, we decided to dissolve all peptides in DMSO to a final concentration of 25 mg/mL, for consistency. The bacteria inoculum was 5 × 10^5 CFU/mL, as recommended by CLSI (Document M07-A10, 2015). […] Reference-type strains, including representatives of both Gram-positive bacteria (Bacillus subtilis ATCC 6633, Enterococcus faecalis ATCC 29212, Staphylococcus aureus ATCC 25923, the methicillin-resistant Staphylococcus aureus ATCC 43300 (MRSA), Streptococcus pyogenes ATCC 12344) and Gram-negative bacteria (Escherichia coli CCUGT, Klebsiella pneumoniae ATCC 13833, Pseudomonas aeruginosa ATCC 27853, and Acinetobacter baumannii ATCC 17978), were acquired from ATCC or CCUG culture collections. Other antibiotic-resistant clinical isolates were present in our collection at the University Teaching Hospital (Azienda Ospedaliero-Universitaria Senese ‘Santa Maria alle Scotte’) in Siena, Tuscany, Italy. Specifically, MDR carbapenem-hydrolyzing class D β-lactamase-producing Acinetobacter baumannii and metallo-β-lactamase-producing Pseudomonas aeruginosa were used in this study (Table 4).

[3] = tested on: Enterococcus faecalis ATCC 29212
From the text: (§2) The antibacterial activity of the peptides was initially assessed on a panel of representative Gram-positive and Gram-negative organisms of high clinical relevance and commonly responsible for bacterial infections in both animals and humans. Bacillus subtilis ATCC 6633 (Bsu) was also included as a rod-shaped model Gram-positive organism. This first panel comprised: Enterococcus faecalis ATCC 29212 (Efa); Streptococcus pyogenes ATCC 12344 (Spy); and Staphylococcus aureus ATCC 25923 (Sau); Gram-negative: Escherichia coli CCUGT (Eco), Klebsiella pneumoniae ATCC 13833 (Kpn), Acinetobacter baumannii ATCC 17978 (Aba), and Pseudomonas aeruginosa ATCC 27853 (Pae) (Table 2). Both the minimum inhibitory concentration (MIC, Table 2) and the minimum bactericidal concentration (MBC, Table S1, Supporting Material) were determined.
as §1

Escherichia coli CCUGT = settings: 18 h
From the text: as §2, §1

[4] = tested on: Pseudomonas aeruginosa ATCC 27853
From the text: as §2, §1

[5] = tested on: Acinetobacter baumannii ATCC 17978
From the text: as §2, §1

[6] = tested on: Staphylococcus aureus ATCC 25923
From the text: as §2, §1

[7] = tested on: Klebsiella pneumoniae ATCC 13833
From the text: as §2, §1

[8] = tested on: Bacillus subtilis ATCC 6633
From the text: as §2, §1

[9] = tested on: Streptococcus pyogenes ATCC 12344
From the text: as §2, §1

[10] = tested on: A. baumannii SI-310 (OXA-24); settings: colistin-resistant isolate; MHB, 5 × 10^5 CFU/mL, 18 h, 35 °C, triplicate
Procedure: as §1

[11] = tested on: P. aeruginosa VA-182/00 (VIM-2); settings: MHB, 5 × 10^5 CFU/mL, 18 h, 35 °C, triplicate
Procedure: as §1

[12] = tested on: P. aeruginosa 101/1477 (IMP-1); settings: MHB, 5 × 10^5 CFU/mL, 18 h, 35 °C, triplicate
Procedure: as §1

[13] = tested on: A. baumannii SI-648 (OXA-23, OXA-51-like); settings: MHB, 5 × 10^5 CFU/mL, 18 h, 35 °C, triplicate
Procedure: as §1

[14] = tested on: A. baumannii SI-12 (OXA-23); settings: MHB, 5 × 10^5 CFU/mL, 18 h, 35 °C, triplicate
Procedure: as §1

[15] = tested on: P. aeruginosa 506/99 (VIM-2); settings: MHB, 5 × 10^5 CFU/mL, 18 h, 35 °C, triplicate
Procedure: as §1

[16] = tested on: P. aeruginosa VR-143/97 (VIM-1); settings: MHB, 5 × 10^5 CFU/mL, 18 h, 35 °C, triplicate
Procedure: as §1

[17] = MHB, 5 × 10^5 CFU/mL, 18 h, 35 °C, triplicate
[18] = MHB, 5 × 10^5 CFU/mL, 35 °C, triplicate

Compound | Hemolysis (class) [1] | Hemolysis (d, diameter of hemolysis zone) ([1]; 50 μg spotted on blood agar) [mm] | MBC S. aureus ATCC 43300 (MRSA) [2] [µg/mL] | MIC S. aureus ATCC 43300 (MRSA) [2] [µg/mL] | MBC Efa [3, 17] [µg/mL] | MIC Efa [3, 17] [µg/mL] | MIC Eco (Escherichia coli CCUGT; [18]) [µg/mL] | MIC Pae [4, 17] [µg/mL] | MIC Aba [5, 17] [µg/mL] | MBC Sau [6, 17] [µg/mL] | MIC Sau [6, 17] [µg/mL] | MIC Kpn [7, 17] [µg/mL] | MBC Bsu [8, 17] [µg/mL] | MIC Bsu [8, 17] [µg/mL] | MBC Spy [9, 17] [µg/mL] | MIC Spy [9, 17] [µg/mL] | also measured
CCCCCCCC(=O)NC(C)(C)C(=O)NCC(=O)N[C@@H](CC(C)C)C(=O)NC(C)(C)C(=O)N[C@@H](CCCCN)C(=O)NC(C)(C)C(=O)N[C@@H](CC(C)C)C(=O)NC(C)(C)C(=O)NCC(=O)N[C@H](C(=O)N[C@H](CO)CC(C)C)[C@@H](C)CC [Peptide 6, 1-Oct-Aib-Gly-Leu-Aib-Lys-Aib-Leu-Aib-Gly-Ile-Lol] (Octanoyl-[Aib]GL[Aib]K[Aib]L[Aib]GI[Leu(ol)]) | + | 4 | 8 (≈ 6.86 µM) | 4 (≈ 3.43 µM) | 8 (≈ 6.86 µM) | 8 (≈ 6.86 µM) | > 128 | > 128 | > 128 | 16 (≈ 13.7 µM) | 8 (≈ 6.86 µM) | > 128 | 16 (≈ 13.7 µM) | 8 (≈ 6.86 µM) | 8 (≈ 6.86 µM) | 8 (≈ 6.86 µM) | 
1-Oct-Aib-Gly-Leu-Aib-Lys-Lys-Leu-Aib-Lys-Ile-Leu-NH2 [Peptide 5b] |  |  | 2 | 2 | 16 | 2 | 32 | 16 | 4 | 32 | 8 | 32 | 16 | 2 | 32 | 2 | MBC A. baumannii SI-310 (OXA-24) [10]: 4 µg/mL; MIC A. baumannii SI-310 (OXA-24) [10]: 2 µg/mL; MBC P. aeruginosa VA-182/00 (VIM-2) [11]: 32 µg/mL; MIC P. aeruginosa VA-182/00 (VIM-2) [11]: 8 µg/mL; MBC P. aeruginosa 101/1477 (IMP-1) [12]: 8 µg/mL; MIC P. aeruginosa 101/1477 (IMP-1) [12]: 8 µg/mL; MBC A. baumannii SI-648 (OXA-23, OXA-51-like) [13]: 4 µg/mL; MIC A. baumannii SI-648 (OXA-23, OXA-51-like) [13]: 4 μg/mL and 4/4 μg/mL; MBC A. baumannii SI-12 (OXA-23) [14]: 8 µg/mL; MIC A. baumannii SI-12 (OXA-23) [14]: 4 µg/mL; MBC P. aeruginosa 506/99 (VIM-2) [15]: 32 µg/mL; MIC P. aeruginosa 506/99 (VIM-2) [15]: 8 µg/mL; MBC P. aeruginosa VR-143/97 (VIM-1) [16]: 32 µg/mL; MIC P. aeruginosa VR-143/97 (VIM-1) [16]: 16 µg/mL and 8 µg/mL; MBC Eco (Escherichia coli CCUGT; [18]): 128 µg/mL; MBC Pae [4, 17]: 128 µg/mL; MBC Aba [5, 17]: 32 µg/mL; MIC against A. baumannii, in molar units ([5]; corresponding to 2 and 8 μg/mL): 1.8 to 7.2 µM; MBC Kpn [7, 17]: 128 µg/mL
CCCCCCCC(=O)NC(C)(C)C(=O)N[C@@H](CCCCN)C(=O)N[C@@H](CC(C)C)C(=O)N[C@@H](CC(C)C)C(N)=O [Peptide 15, 1-Oct-Aib-Lys-Leu-Leu-NH2] (Octanoyl-[Aib]KLL-NH2) |  | 5 |  |  |  | 32 (≈ 54.9 µM) | 64 (≈ 110 µM) | 64 (≈ 110 µM) | 64 (≈ 110 µM) |  | 64 (≈ 110 µM) | 64 (≈ 110 µM) |  | 16 (≈ 27.5 µM) |  | 16 (≈ 27.5 µM) | MBC Efa ([3]; ATCC 29212, 18 h): 32 µg/mL (≈ 54.9 µM); MBC Eco (Escherichia coli CCUGT; CCUGT): > 128 µg/mL; MBC Pae ([4]; ATCC 27853, 18 h): > 128 µg/mL; MBC Aba ([5]; ATCC 17978, 18 h): 128 µg/mL (≈ 220 µM); MBC Sau ([6]; ATCC 25923, 18 h): > 128 µg/mL; MBC Kpn ([7]; ATCC 13833, 18 h): > 128 µg/mL; MBC Bsu ([8]; ATCC 6633, 18 h): 32 µg/mL (≈ 54.9 µM); MBC Spy ([9]; ATCC 12344, 18 h): 16 µg/mL (≈ 27.5 µM)
CCCCCCCC(=O)NC(C)(C)C(=O)NCC(=O)N[C@@H](CC(C)C)C(=O)NC(C)(C)C(=O)NCC(=O)NCC(=O)N[C@@H](CC(C)C)C(=O)NC(C)(C)C(=O)NCC(=O)N[C@H](C(=O)N[C@H](CO)CC(C)C)[C@@H](C)CC [Peptide 0, Trichogin GA IV, reference compound] (Octanoyl-[Aib]GL[Aib]GGL[Aib]GI[Leu(ol)]) | - |  |  |  | 32 (≈ 30 µM) | 16 (≈ 15 µM) | > 128 | > 128 | > 128 |  | > 128 | > 128 | 32 (≈ 30 µM) | 16 (≈ 15 µM) | 16 (≈ 15 µM) | 16 (≈ 15 µM) | 
CCCCCCCC(=O)NC(C)(C)C(=O)NCC(=O)N[C@@H](CC(C)C)C(=O)NC(C)(C)C(=O)NCC(=O)NCC(=O)N[C@@H](CC(C)C)C(=O)NC1(C(=O)NCC(=O)N[C@H](C(=O)N[C@@H](CC(C)C)C(N)=O)[C@@H](C)CC)CCNCC1 [Peptide 8, 1-Oct-Aib-Gly-Leu-Aib-Gly-Gly-Leu-Api-Gly-Ile-Leu-NH2] (Octanoyl-[Aib]GL[Aib]GGL[Api]GIL-NH2) | + | 7 |  |  |  | 16 (≈ 14.3 µM) | > 128 | > 128 | > 128 |  | > 128 | > 128 |  | 32 (≈ 28.6 µM) |  | 16 (≈ 14.3 µM) | Hemolytic activity (in words) ([1]; 50 μg spotted on blood agar): hemolytic activity
